We go through 1 substance from patent US11370880B1 (FLORIDA ATLANTIC UNIVERSITY BOARD OF TRUSTEES, priority 2018, dated 2022).

The subject of this series is HUVEC cells.

Procedure: Human umbilical vein endothelial cells (HUVECs) were grown in endothelial growth medium (EGM-2, Lonza) supplemented with 10% fetal bovine serum (Gibco) and 1% PSG (Penicillin-Streptomycin-Glutamine, Gibco). […] At the same time, the cellular toxicity of degradation product of PXDDA on HUVEC cells was also evaluated. For this purpose, 104 cells were first seeded and cultured on the 96-well plates for 3 days. The degradation products were diluted with culture medium to obtain different concentrations (12.5, 25, and 40% v/v), and they were then added into the cells. After 36 h, 20 μl of MTT solution was added and the plated was incubated at 37° C. for 4 h. After adding 200 μl of DMSO, the absorbance was recorded at 570 nm. The measurements were carried out in triplicate.

With “poly(xylitol-dodecanedioic acid) [PXDDA]”, the “toxicity of degradation products to HUVEC cells (MTT)” value is “No tangible toxicity”.
